The source of these data is patent publication US20250136606A1, “MODULATORS OF TRPML, THEIR COMPOSITIONS AND METHODS OF USE” (Caraway Therapeutics, Inc., priority 2021, published 2025).

Where two headings read alike, the source gives them in different places. Where only a bound is given, the exact number is not on record here.

What all share (type): cell-based
One assay has as its target T1, TRPML2 (Homo sapiens, UniProt Q8IZK6).
T1 construct: expressed in transfected cells
T1 sequence (Q8IZK6 1-566): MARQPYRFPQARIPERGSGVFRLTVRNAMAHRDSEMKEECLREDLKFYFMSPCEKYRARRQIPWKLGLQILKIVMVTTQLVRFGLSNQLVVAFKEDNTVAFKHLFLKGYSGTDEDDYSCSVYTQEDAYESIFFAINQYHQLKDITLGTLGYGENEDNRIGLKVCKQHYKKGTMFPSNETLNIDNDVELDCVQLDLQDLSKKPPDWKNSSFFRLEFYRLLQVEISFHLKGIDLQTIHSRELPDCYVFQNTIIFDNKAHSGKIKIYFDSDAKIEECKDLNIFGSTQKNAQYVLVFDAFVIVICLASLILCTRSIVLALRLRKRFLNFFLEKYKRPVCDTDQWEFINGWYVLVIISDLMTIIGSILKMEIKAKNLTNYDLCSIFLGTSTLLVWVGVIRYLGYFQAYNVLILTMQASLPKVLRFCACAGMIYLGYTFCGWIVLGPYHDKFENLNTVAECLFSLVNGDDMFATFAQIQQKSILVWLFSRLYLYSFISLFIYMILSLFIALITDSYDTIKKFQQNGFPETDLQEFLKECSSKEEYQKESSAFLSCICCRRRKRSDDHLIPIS
In words: Fluorescent TRPML2 assay (performed as for TRPML1, substituting the TRPML2 subtype). An outline of the steps: (§1)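 Calcium-influx readout: Fluo4 fluorescence at 480/540 nm, normalised to positive and negative controls per plate, EC50 fitted by non-linear regression. Cells were HEK-293 Trex stable lines, channel expression induced overnight with 0.5 ug/mL doxycycline; tested at 20 micromolar down to 6 nanomolar final, half-log steps, triplicate.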

The next assay has as its target TRPML1 (Homo sapiens, UniProt Q9GZU1). In words: Fluorescent TRPML1 assay (Fluo4-AM calcium fluorescence in doxycycline-induced HEK-293 Trex cells). The essentials:
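HEK-293 Trex cells stably expressing surface-directed mutant human TRPML1, induced with 0.5 µg/mL doxycycline overnight, were loaded with 1 µM Fluo4-AM and added to compound (6 nM–20 µM final, half-log steps, triplicate) in Ringer's with 10 mM calcium. Fluorescence ex 480/em 540; EC50 by non-linear regression versus plate controls.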

Another assay concerns the target T2, TRPML3 (Homo sapiens, UniProt Q8TDD5).
T2 construct: expressed in transfected cells
T2 sequence (Q8TDD5 1-553): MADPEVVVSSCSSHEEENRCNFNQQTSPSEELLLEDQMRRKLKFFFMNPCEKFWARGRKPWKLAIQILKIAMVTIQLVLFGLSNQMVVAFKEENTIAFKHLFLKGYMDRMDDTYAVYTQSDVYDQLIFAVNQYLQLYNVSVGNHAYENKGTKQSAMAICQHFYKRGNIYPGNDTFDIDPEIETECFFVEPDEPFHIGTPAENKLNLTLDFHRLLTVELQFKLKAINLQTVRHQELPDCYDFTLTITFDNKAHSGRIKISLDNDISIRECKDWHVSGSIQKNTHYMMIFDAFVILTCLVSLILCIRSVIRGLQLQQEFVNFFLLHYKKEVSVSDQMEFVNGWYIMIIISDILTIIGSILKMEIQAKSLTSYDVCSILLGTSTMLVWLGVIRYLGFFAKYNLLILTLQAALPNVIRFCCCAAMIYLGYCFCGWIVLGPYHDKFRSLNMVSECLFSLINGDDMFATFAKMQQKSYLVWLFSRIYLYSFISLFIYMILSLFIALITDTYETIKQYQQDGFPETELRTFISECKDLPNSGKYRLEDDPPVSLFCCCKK
The assay can be described thus: Fluorescent TRPML3 assay (performed as for TRPML1, substituting the TRPML3 subtype). The essentials: as §1

TRPML1, sequence (Q9GZU1 whole entry L15A/L16A/L577A/L578A, form open): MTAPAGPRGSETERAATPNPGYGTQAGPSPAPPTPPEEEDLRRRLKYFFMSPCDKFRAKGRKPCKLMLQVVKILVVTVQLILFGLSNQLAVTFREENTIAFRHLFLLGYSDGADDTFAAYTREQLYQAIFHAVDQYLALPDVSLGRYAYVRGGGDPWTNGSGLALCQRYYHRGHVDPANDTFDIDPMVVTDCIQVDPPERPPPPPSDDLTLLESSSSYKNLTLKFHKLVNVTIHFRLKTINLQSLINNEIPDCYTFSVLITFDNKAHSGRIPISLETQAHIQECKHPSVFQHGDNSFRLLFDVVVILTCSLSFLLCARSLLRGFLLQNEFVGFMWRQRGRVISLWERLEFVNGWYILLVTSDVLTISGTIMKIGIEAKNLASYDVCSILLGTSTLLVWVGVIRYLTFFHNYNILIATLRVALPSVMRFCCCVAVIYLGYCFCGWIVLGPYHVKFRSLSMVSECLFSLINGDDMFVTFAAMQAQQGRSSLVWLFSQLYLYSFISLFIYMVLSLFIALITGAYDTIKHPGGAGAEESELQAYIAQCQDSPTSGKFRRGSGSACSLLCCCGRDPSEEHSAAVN

On to `C[C@@H]1CN(c2cn(-c3cccc(C#N)c3)c3ncnc(N4CCN(C(=O)OC(C)(C)C)C[C@@H]4C)c23)CCO1` [Compound 363, tert-butyl (S)-4-(7-(3-cyanophenyl)-5-((R)-2-methylmorpholino)-7H-pyrrolo[2,3-d]pyrimidin-4-yl)-3-methylpiperazine-1-carboxylate], for which the EC50 on TRPML2 (fluorescent calcium assay) was 500 to 2000 nM; at TRPML1 (fluorescent calcium assay), 100 to 500 nM; on TRPML3 (fluorescent calcium assay) it was under 100 nM.
Turning to `Cc1cncc(-n2cc(-c3cccnc3)c3c(N4CCN(C(=O)OC(C)(C)C)C[C@@H]4C)ncnc32)c1` [Compound 177, tert-butyl (S)-3-methyl-4-(7-(5-methylpyridin-3-yl)-5-(pyridin-3-yl)-7H-pyrrolo[2,3-d]pyrimidin-4-yl)piperazine-1-carboxylate], the EC50 on TRPML2 (fluorescent calcium assay) is over 2000 nM; on TRPML1 (fluorescent calcium assay), 500 to 2000 nM; on TRPML3 (fluorescent calcium assay) it was 500 to 2000 nM.
On to `C[C@@H]1CN(c2ncnc3c2c(-n2ccnc2)cn3-c2cccc(Cl)c2)CCN1C(=O)OC(C)(C)C` [Compound 342, tert-butyl (R)-4-(7-(3-chlorophenyl)-5-(1H-imidazol-1-yl)-7H-pyrrolo[2,3-d]pyrimidin-4-yl)-2-methylpiperazine-1-carboxylate], for which the EC50 on TRPML2 (fluorescent calcium assay) was 500 to 2000 nM; at TRPML1 (fluorescent calcium assay), under 100 nM; at TRPML3 (fluorescent calcium assay) it was 100 to 500 nM.
For `C[C@@H]1CN(c2ncnc3c2c(C2CCC2)cn3-c2cccc(C(F)(F)F)c2)[C@@H](C)CN1C(=O)OC(C)(C)C` [Compound 645, tert-butyl (2R,5S)-4-(5-cyclobutyl-7-(3-(trifluoromethyl)phenyl)-7H-pyrrolo[2,3-d]pyrimidin-4-yl)-2,5-dimethylpiperazine-1-carboxylate], the EC50 on TRPML2, at TRPML1 and at TRPML3 was 100 to 500 nM each time.
`Cc1cncc(-n2cc(C3CC3)c3c(N4CCN(C(=O)OC(C)(C)C)C[C@@H]4C)ncnc32)c1` [Compound 150, tert-butyl (S)-4-(5-cyclopropyl-7-(5-methylpyridin-3-yl)-7H-pyrrolo[2,3-d]pyrimidin-4-yl)-3-methylpiperazine-1-carboxylate]: the values for the EC50 at TRPML2 (fluorescent calcium assay), at TRPML1 (fluorescent calcium assay) and on TRPML3 (fluorescent calcium assay) were 500 to 2000 nM, 100 to 500 nM and 100 to 500 nM, respectively.
For the compound `C[C@H]1CN(C(=O)OC(C)(C)C)CCN1c1nccc2c1c(N1CCC1)cn2-c1cccc(F)c1` [Compound 637, tert-butyl (S)-4-(3-(azetidin-1-yl)-1-(3-fluorophenyl)-1H-pyrrolo[3,2-c]pyridin-4-yl)-3-methylpiperazine-1-carboxylate], the EC50 is 100 to 500 nM on TRPML2, under 100 nM on TRPML1 and under 100 nM at TRPML3.
Take `CC(C)(C)OC(=O)N1CCN(c2ncnc3c2c(-c2ccccc2F)cn3-c2cc(C#N)ccn2)C2(CC2)C1` [Compound 435, tert-butyl 4-(7-(4-cyanopyridin-2-yl)-5-(2-fluorophenyl)-7H-pyrrolo[2,3-d]pyrimidin-4-yl)-4,7-diazaspiro[2.5]octane-7-carboxylate]: the EC50 on TRPML2 (fluorescent calcium assay), at TRPML1 (fluorescent calcium assay) and at TRPML3 (fluorescent calcium assay) was under 100 nM throughout.
In the case of `C[C@@H]1COCCN1c1cn(-c2cc(C#N)ccn2)c2ncnc(N3CCN(C(=O)OC(C)(C)C)C[C@@H]3C)c12` [Compound 419, tert-butyl (S)-4-(7-(4-cyanopyridin-2-yl)-5-((R)-3-methylmorpholino)-7H-pyrrolo[2,3-d]pyrimidin-4-yl)-3-methylpiperazine-1-carboxylate], the EC50 on TRPML2 (fluorescent calcium assay) is 100 to 500 nM; at TRPML1 (fluorescent calcium assay), under 100 nM; at TRPML3 (fluorescent calcium assay), under 100 nM.
Take `CC(C)(C)OC(=O)N1CCN(c2ncnc3c2c(C2CCOCC2)cn3-c2cccc(Cl)c2)CC1` [Compound 465, tert-butyl 4-(7-(3-chlorophenyl)-5-(tetrahydro-2H-pyran-4-yl)-7H-pyrrolo[2,3-d]pyrimidin-4-yl)piperazine-1-carboxylate]: the concentration for a half-maximal effect (EC50) on TRPML2 (fluorescent calcium assay) was 500 to 2000 nM; at TRPML1 (fluorescent calcium assay) it was 100 to 500 nM; on TRPML3 (fluorescent calcium assay), under 100 nM.

Broadly, the EC50 is the concentration needed to bring the measured effect to its halfway point.
